These results are taken from patent publication EP2588472B1, “RUPATADINE derivative AS AN ANTIHISTAMINIC AGENT” (J. Uriach y Compania S.A., priority 2010, dated 2012).

One series deals with T1, human H1 receptor (Homo sapiens, UniProt P35367).
T1 construct: expressed in transfected cells; host or cells: HEK-293 (membranes)
The experiment in a line: standard H1 binding assay ([3H]-pyrilamine displacement, scintillation counting). Particulars: recombinant HEK-293 derived membranes, [3H]-pyrilamine 1 nM, 22°C, 60 minutes. The procedure:
The antiH1 activity of Compound II was assayed using a standard H1 binding assay. The test was performed following a protocol based on Smit et al. (Brit. J. Pharmacol. 1996 117(6), 1071-1080): the binding was performed on recombinant HEK-293 cells expressing the human H1 receptor. The reference compound was [^3H]-pyrilamine at 1 nM. Recombinant HEK-293 derived membranes were incubated at 22°C for 60 minutes with [^3H]-pyrilamine in the presence of different concentrations of compound II. Measurements were carried out using scintillation counting.

The nature of another series: solubility in water. Type of series: physicochemical.
The conditions of series [1]: stated in background; cited from earlier work.

T1 sequence (P35367 whole entry): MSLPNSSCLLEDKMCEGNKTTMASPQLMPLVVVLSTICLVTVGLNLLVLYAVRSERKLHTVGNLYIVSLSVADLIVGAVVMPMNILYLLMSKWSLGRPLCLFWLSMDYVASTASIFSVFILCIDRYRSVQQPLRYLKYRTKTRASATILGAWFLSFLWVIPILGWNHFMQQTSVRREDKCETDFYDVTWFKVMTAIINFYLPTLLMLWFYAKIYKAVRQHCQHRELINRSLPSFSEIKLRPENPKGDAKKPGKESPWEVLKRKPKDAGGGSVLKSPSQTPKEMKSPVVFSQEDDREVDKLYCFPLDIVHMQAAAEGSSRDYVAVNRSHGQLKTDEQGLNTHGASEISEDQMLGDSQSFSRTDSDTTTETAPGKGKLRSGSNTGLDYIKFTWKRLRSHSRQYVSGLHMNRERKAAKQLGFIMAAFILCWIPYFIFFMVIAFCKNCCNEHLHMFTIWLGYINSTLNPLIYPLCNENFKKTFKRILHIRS

For `Cc1cc(CN2CCC(=C3c4ccc(Cl)cc4CCc4cccnc43)CC2)c[n+](C(CC(=O)O)C(=O)[O-])c1` (stereo not drawn) [Compound II], the IC50 at human H1 receptor is 370 nM. For the same compound, in “solubility in water”, the solubility is more than 50 mg/mL. In the case of Rupatadine fumarate, the solubility in water in series [1] is 2.9 mg/mL.

One may read the IC50 as the concentration at which inhibition is half-maximal. What is called solubility is the concentration that dissolves in the medium under given conditions.
